Measured values taken from patent US10087172B2, “Compounds and their methods of use” (AGIOS PHARMACEUTICALS, INC, priority 2012, dated 2018).

Molecular target: T1, glutaminase (GAC) (Homo sapiens, UniProt O94925)
T1 sequence (O94925 55-598 isoform O94925-3 limits assumed): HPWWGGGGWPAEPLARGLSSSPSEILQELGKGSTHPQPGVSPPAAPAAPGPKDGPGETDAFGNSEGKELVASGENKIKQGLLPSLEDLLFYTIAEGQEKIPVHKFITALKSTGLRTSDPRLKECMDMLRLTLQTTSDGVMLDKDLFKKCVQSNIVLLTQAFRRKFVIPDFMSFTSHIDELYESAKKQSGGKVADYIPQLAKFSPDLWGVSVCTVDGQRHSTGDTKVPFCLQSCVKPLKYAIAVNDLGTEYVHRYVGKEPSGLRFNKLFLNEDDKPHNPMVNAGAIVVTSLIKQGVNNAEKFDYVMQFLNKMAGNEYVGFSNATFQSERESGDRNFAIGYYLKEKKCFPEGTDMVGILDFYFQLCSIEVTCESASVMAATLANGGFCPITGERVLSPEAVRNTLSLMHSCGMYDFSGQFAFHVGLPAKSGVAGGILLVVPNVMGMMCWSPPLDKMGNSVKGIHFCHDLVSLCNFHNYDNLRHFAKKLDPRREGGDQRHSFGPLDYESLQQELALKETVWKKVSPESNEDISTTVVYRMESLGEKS
Experiment: Glutaminase (GAC) coupled endpoint enzymatic assay (glutamate dehydrogenase/diaphorase/resazurin, Ex544/Em590)
Type: biochemical
Details: inhibition of glutaminase, tested in an assay of Example A or Example B; class symbols A-E
Description: In certain embodiments, exemplary compounds of Formula I include the compounds described in Table 1 and in the Examples. A compound described herein may be tested for its ability to inhibit glutaminase, e.g., by an assay as described in the Examples. For simplicity, the inhibition activity of these compounds is represented as an IC50 tested in an assay of Example A or Example B in Table 1. […] “N/A” refers to compounds wherein the IC50 is unavailable.
In this example, the enzymatic activity of glutaminase is measured through a coupled endpoint assay. Glutamine and phosphate are supplied to GAC at a concentration equal to Km and AC50, respectively, and GAC concentration is adjusted to give a linear reaction for 60 minutes. The glutamate produced is converted to 2-OG by a kinetic excess of glutamate dehydrogenase. This second step is configured for 2× Km for NAD, since excess NAD is inhibitory. However, a kinetic excess of the third coupling enzyme, diaphorase, recycles NAD from NADH to keep the NAD concentration constant during the timecourse of the assay. Diaphorase, also supplied in kinetic excess, oxidizes NADH produced by GDH back to NAD with the concomitant reduction of rezasurin to the highly fluorescent resorufin. Resorufin in measured after the assay is stopped with SDS by Ex544/Em590. A reduction in the signal indicates inhibition of some component of the coupled enzyme system. Prospective hits are counterscreened against GDH/diaphorase alone to remove hits to the coupling enzyme system in a second assay.
2. Buffers 2× Buffer (300 mM NaCl, 100 mM HEPES pH 8.5, 0.1% BSA, 0.5 mM EDTA, 100 mM sodium phosphate pH 8.5) 5× Substrate Mix (1× Buffer final concentration, with 13 mM glutamine, 100 μM resazurin, 50 μg/ml diaphorase) 1.2× Enzyme Mix (1× Buffer final concentration, with 0.875 μg/ml GAC, 1.56 mM NAD, 6.25 units/ml GDH) Stop Mix (6% SDS in ddH2O) Reaction Procedure 1. Add 1 μl compound in 100% DMSO 2. Add 40 μl of Enzyme Mix and incubate for 60 minute at room temperature 3. Add 10 μl of Substrate Mix to start reaction 4. Stop reaction with 25 μl of 6% SDS and read Ex544 Em 590

Structure (SMILES) | IC50
CC(C)Oc1cccc(CC(=O)Nc2nnc([C@H]3CCC[C@H](c4nnc(NC(=O)Cc5cccc(OC(C)C)c5)s4)C3)s2)c1 [Compound 91, N,N′-(5,5′-((1S,3S)-cyclohexane-1,3-diyl)bis(1,3,4-thiadiazole-5,2-diyl))bis(2-(3-isopropoxyphenyl)acetamide)] | 100 to 500 nM
CC(C)Oc1ccccc1CC(=O)Nc1nnc([C@H]2CCC[C@H](c3nnc(NC(=O)Cc4ccccc4OC(C)C)s3)C2)s1 [Compound 92, N,N′-(5,5′-((1S,3S)-cyclohexane-1,3-diyl)bis(1,3,4-thiadiazole-5,2-diyl))bis(2-(2-isopropoxyphenyl)acetamide)] | 100 to 500 nM
O=C(Cc1nccs1)Nc1nnc([C@H]2CCC[C@H](c3nnc(NC(=O)Cc4nccs4)s3)C2)s1 [Compound 100] | < 100 nM
CC(=O)Nc1cccc(CC(=O)Nc2nnc([C@H]3CCC[C@H](c4nnc(NC(=O)Cc5cccc(NC(C)=O)n5)s4)C3)s2)n1 [Compound 104, N,N′-(5,5′-((1S,3S)-cyclohexane-1,3-diyl)bis(1,3,4-thiadiazole-5,2-diyl))bis(2-(6-acetamidopyridin-2-yl)acetamide)] | < 100 nM
Cc1cccc(CC(=O)Nc2nnc([C@H]3CCC[C@H](c4nnc(NC(=O)Cc5cccc(C)c5)s4)C3)s2)c1 [Compound 111, N,N′-(5,5′-((1S,3S)-cyclohexane-1,3-diyl)bis(1,3,4-thiadiazole-5,2-diyl))bis(2-m-tolylacetamide)] | 100 to 500 nM
COc1cccc(CC(=O)Nc2nnc([C@H]3CCC[C@H](c4nnc(NC(=O)Cc5cccc(OC)c5OC)s4)C3)s2)c1OC [Compound 112, N,N′-(5,5′-((1S,3S)-cyclohexane-1,3-diyl)bis(1,3,4-thiadiazole-5,2-diyl))bis(2-(2,3-dimethoxyphenyl)acetamide)] | < 100 nM
O=C(Cc1ccccn1)Nc1nnc([C@H]2CC[C@H](c3nnc(NC(=O)Cc4ccccn4)s3)C2)s1 [Compound 309] | < 100 nM
O=C(Cc1csc(N2CC(F)(F)C2)n1)Nc1nnc([C@H]2CCC[C@H](c3nnc(NC(=O)Cc4csc(N5CC(F)(F)C5)n4)s3)C2)s1 [Compound 336] | < 100 nM
O=C(Cc1ccnc(N2CC(F)(F)C2)n1)Nc1nnc([C@H]2CCC[C@H](c3nnc(NC(=O)Cc4ccnc(N5CC(F)(F)C5)n4)s3)C2)s1 [Compound 346, N,N′-(5,5′-((1R,3R)-cyclohexane-1,3-diyl)bis(1,3,4-thiadiazole-5,2-diyl))bis(2-(2-(3,3-difluoroazetidin-1-yl)pyrimidin-4-yl)acetamide)] | < 100 nM
COc1ccc(CC(=O)Nc2nnc([C@H]3CC[C@H](c4nnc(NC(=O)Cc5ccc(OC)cn5)s4)C3)s2)nc1 [Compound 347, N,N′-(5,5′-((1S,3S)-cyclopentane-1,3-diyl)bis(1,3,4-thiadiazole-5,2-diyl))bis(2-(5-methoxypyridin-2-yl)acetamide)] | < 100 nM
O=C(Cc1cccc(N2CC(F)C2)c1)Nc1nnc([C@H]2CCC[C@H](c3nnc(NC(=O)Cc4cccc(N5CC(F)C5)c4)s3)C2)s1 [Compound 348] | < 100 nM
O=C(Cc1cccc(N2CC(F)(F)C2)n1)Nc1nnc([C@H]2CCC[C@H](c3nnc(NC(=O)CC4CC4)s3)C2)s1 [Compound 349, 2-cyclopropyl-N-(5-((1S,3S)-3-(5-(2-(6-(3,3-difluoroazetidin-1-yl)pyridin-2-yl)acetamido)-1,3,4-thiadiazol-2-yl)cyclohexyl)-1,3,4-thiadiazol-2-yl)acetamide] | < 100 nM
O=C(Cc1cccc(CO)c1)Nc1nnc([C@H]2CCC[C@H](c3nnc(NC(=O)Cc4cccc(CO)c4)s3)C2)s1 [Compound 351] | < 100 nM
COCCOc1ccnc(CC(=O)Nc2nnc([C@H]3CCC[C@H](c4nnc(NC(=O)Cc5cc(OCCOC)ccn5)s4)C3)s2)c1 [Compound 353] | < 100 nM
O=C(Cc1cncc(N2CC(F)(F)C2)n1)Nc1nnc([C@H]2CCC[C@H](c3nnc(NC(=O)Cc4cncc(N5CC(F)(F)C5)n4)s3)C2)s1 [Compound 354] | < 100 nM
N#Cc1cccc(CC(=O)Nc2nnc([C@H]3CCC[C@H](c4nnc(NC(=O)Cc5cccc(C6CCNCC6)c5)s4)C3)s2)c1 [Compound 355] | < 100 nM
O=C(Cc1cc(OC(F)F)ccn1)Nc1nnc([C@H]2CCC[C@H](c3nnc(NC(=O)Cc4cc(OC(F)F)ccn4)s3)C2)s1 [Compound 356, N,N′-(5,5′-((1S,3S)-cyclohexane-1,3-diyl)bis(1,3,4-thiadiazole-5,2-diyl))bis(2-(4-(difluoromethoxy)pyridin-2-yl)acetamide)] | < 100 nM
O=C(Cc1ccc(N2CC(F)C2)cn1)Nc1nnc([C@H]2CCC[C@H](c3nnc(NC(=O)Cc4ccc(N5CC(F)C5)cn4)s3)C2)s1 [Compound 357] | < 100 nM
COc1ccc(CC(=O)Nc2nnc([C@H]3CC[C@H](c4nnc(NC(=O)Cc5cccc(N6CC(F)(F)C6)n5)s4)C3)s2)cn1 [Compound 358] | < 100 nM
COc1ccc(CC(=O)Nc2nnc([C@H]3CCC[C@H](c4nnc(NC(=O)Cc5cccc(N6CC(F)(F)C6)n5)s4)C3)s2)cn1 [Compound 359] | < 100 nM
N#Cc1cccc(CC(=O)Nc2nnc([C@H]3CCC[C@H](c4nnc(NC(=O)Cc5cccc(CN)c5)s4)C3)s2)c1 [Compound 361] | < 100 nM
CN1CCC(c2cccc(CC(=O)Nc3nnc([C@H]4CCC[C@H](c5nnc(NC(=O)Cc6cccc(C7CCN(C)CC7)c6)s5)C4)s3)c2)CC1 [Compound 362, N,N′-(5,5′-((1S,3S)-cyclohexane-1,3-diyl)bis(1,3,4-thiadiazole-5,2-diyl))bis(2-(3-(1-methylpiperidin-4-yl)phenyl)acetamide)] | < 100 nM
O=C(Cc1ccc(N2CC(F)C2)cn1)Nc1nnc([C@H]2CC[C@H](c3nnc(NC(=O)Cc4ccc(N5CC(F)C5)cn4)s3)C2)s1 [Compound 363] | < 100 nM
O=C(Cc1cccc(OC(F)(F)F)c1)Nc1nnc([C@H]2CCC[C@H](c3nnc(NC(=O)Cc4ccccn4)s3)C2)s1 [Compound 364, 2-(pyridin-2-yl)-N-(5-((1S,3S)-3-(5-(2-(3-(trifluoromethoxy)phenyl)acetamido)-1,3,4-thiadiazol-2-yl)cyclohexyl)-1,3,4-thiadiazol-2-yl)acetamide] | < 100 nM
O=C(Cc1cccc(OC(F)(F)F)c1)Nc1nnc([C@H]2CCC[C@H](c3nnc(NC(=O)[C@H](O)c4ccccc4)s3)C2)s1 [Compound 365, (R)-2-hydroxy-2-phenyl-N-(5-((1S,3S)-3-(5-(2-(3-(trifluoromethoxy)phenyl)acetamido)-1,3,4-thiadiazol-2-yl)cyclohexyl)-1,3,4-thiadiazol-2-yl)acetamide] | < 100 nM
N#Cc1cccc(CC(=O)Nc2nnc([C@H]3CCC[C@H](c4nnc(NC(=O)Cc5cccc(N6CC(N)C6)n5)s4)C3)s2)c1 [Compound 366, 2-(6-(3-aminoazetidin-1-yl)pyridin-2-yl)-N-(5-((1S,3S)-3-(5-(2-(3-cyanophenyl)acetamido)-1,3,4-thiadiazol-2-yl)cyclohexyl)-1,3,4-thiadiazol-2-yl)acetamide] | < 100 nM
N#Cc1cccc(CC(=O)Nc2nnc([C@H]3CCC[C@H](c4nnc(NC(=O)Cc5cccc(C6CCCNC6)c5)s4)C3)s2)c1 (stereo partly drawn) [Compound 367, 2-(3-cyanophenyl)-N-(5-((1S,3S)-3-(5-(2-(3-(piperidin-3-yl)phenyl)acetamido)-1,3,4-thiadiazol-2-yl)cyclohexyl)-1,3,4-thiadiazol-2-yl)acetamide] | < 100 nM
CC(=O)N(C)c1ccc(CC(=O)Nc2nnc([C@H]3CCC[C@H](c4nnc(NC(=O)Cc5ccc(N(C)C(C)=O)cn5)s4)C3)s2)nc1 [Compound 368] | < 100 nM
O=C(Cc1cccc(N2CC(F)(F)C2)n1)Nc1nnc([C@H]2CCC[C@H](c3nnc(NC(=O)[C@H](O)c4ccccc4)s3)C2)s1 [Compound 369] | < 100 nM
